The subject of assay [1] is Escherichia coli EC-1: VOGEL, mouse virulent. Put plainly: MIC determination (CLSI), strain EC-1. The conditions noted are these: strain EC-1; unit assumed. Format: cell-based. An outline of the steps: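 The mouse-virulent VOGEL isolate of E. coli, EC-1, served as test organism. Minimum inhibitory concentration was measured by CLSI dilution methodology (M7-A7; M100-S18 standards).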

The test system of assay [2] is Pseudomonas aeruginosa UI-18: Wild-type (PA-7). Kind of assay: MIC determination (CLSI), strain PA-7. Format: cell-based. Particulars: strain PA-7; unit assumed. An outline of the steps:
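Strain tested was P. aeruginosa UI-18, a wild-type isolate labelled PA-7. Minimum inhibitory concentrations followed CLSI dilution methodology for aerobically growing bacteria (M7-A7, M100-S18).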

The values that follow come from patent US8846933B2, “N-link hydroxamic acid derivatives useful as antibacterial agents” (Pfizer Inc., priority 2009, dated 2014).

Bounds are passed on as bounds.

As to `CC(CCn1ccc(-c2ccc(Br)cc2F)cc1=O)(C(=O)NO)S(C)(=O)=O` (centres unmarked) [Example 283, 4-[4-(4-bromo-2-fluorophenyl)-2-oxopyridin-1(2H)-yl]-N-hydroxy-2-methyl-2-(methylsulfonyl)butanamide], in assay [1], the EC-1 (MIC) was found to be 0.25 µg/mL. In addition, the PA-7 (MIC) in assay [2] was determined as 1 µg/mL.

In assay [1], `Cc1cn(CCC(C)(C(=O)NO)S(C)(=O)=O)c(=O)cc1-c1ccccc1` (centres unmarked) [Example 284, N-hydroxy-2-methyl-4-(5-methyl-2-oxo-4-phenylpyridin-1(2H)-yl)-2-(methylsulfonyl)butanamide] showed an EC-1 (MIC) of 32 µg/mL. Moreover, the PA-7 (MIC) in assay [2] was determined as 64 µg/mL.

In assay [1], `COc1ccc(-c2ccn(CC[C@](C)(C(=O)NO)S(C)(=O)=O)c(=O)c2)cn1` [Example 285, (2R)-N-hydroxy-4-(6-methoxy-2′-oxo-3,4′-bipyridin-1′(2′H)-yl)-2-methyl-2-(methylsulfonyl)butanamide] yielded an EC-1 (MIC) of 4 µg/mL. The compound further came in with a PA-7 (MIC) in assay [2] of 4 µg/mL.

Compound `Cc1cc(-c2cc(CO)no2)ccc1-c1ccn(CCC(C)(C(=O)NO)S(C)(=O)=O)c(=O)c1` (centres unmarked) [Example 286] had an EC-1 (MIC) in assay [1] of 16 µg/mL. Moreover, in assay [2], the PA-7 (MIC) was found to be 16 µg/mL.

`CC(CCn1ccc(-c2ccc(Oc3cccnc3)cc2)cc1=O)(C(=O)NO)S(C)(=O)=O` (centres unmarked) [Example 287, N-hydroxy-2-methyl-2-(methylsulfonyl)-4-{2-oxo-4-[4-(pyridin-3-yloxy)phenyl]pyridin-1(2H)-yl}butanamide] showed an EC-1 (MIC) in assay [1] of 0.5 µg/mL. This compound also registered a PA-7 (MIC) in assay [2] of 4 µg/mL.

For `COc1ccc2ccc(-c3ccn(CCC(C)(C(=O)NO)S(C)(=O)=O)c(=O)c3)cc2c1` (centres unmarked) [Example 288, N-hydroxy-4-[4-(7-methoxy-2-naphthyl)-2-oxopyridin-1(2H)-yl]-2-methyl-2-(methylsulfonyl)butanamide], in assay [1], the EC-1 (MIC) is 0.125 µg/mL. For the same compound, the PA-7 (MIC) in assay [2] turned out to be 4 µg/mL.

Turning to `Cc1cc(OCCCn2cncn2)ccc1-c1ccn(CCC(C)(C(=O)NO)S(C)(=O)=O)c(=O)c1` (centres unmarked) [Example 289, N-hydroxy-2-methyl-2-(methylsulfonyl)-4-[4-{2-methyl-4-[3-(1H-1,2,4-triazol-1-yl)propoxy]phenyl}-2-oxopyridin-1(2H)-yl]butanamide], in assay [1], the EC-1 (MIC) worked out at 32 µg/mL. This compound displayed a PA-7 (MIC) in assay [2] of 32 µg/mL.

`CC(CCn1ccc(-c2ccc(OCCCn3cncn3)c(Cl)c2)cc1=O)(C(=O)NO)S(C)(=O)=O` (centres unmarked) [Example 290, 4-[4-{3-chloro-4-[3-(1H-1,2,4-triazol-1-yl)propoxy]phenyl}-2-oxopyridin-1(2H)-yl]-N-hydroxy-2-methyl-2-(methylsulfonyl)butanamide] registered an EC-1 (MIC) in assay [1] of 16 µg/mL. The same compound had a PA-7 (MIC) in assay [2] of 16 µg/mL.

Consider `CC(CCn1ccc(-c2ccc(OCCCn3cncn3)cc2Cl)cc1=O)(C(=O)NO)S(C)(=O)=O` (centres unmarked) [Example 291, 4-[4-{2-chloro-4-[3-(1H-1,2,4-triazol-1-yl)propoxy]phenyl}-2-oxopyridin-1(2H)-yl]-N-hydroxy-2-methyl-2-(methylsulfonyl)butanamide], for which the EC-1 (MIC) in assay [1] was 16 µg/mL. Further, in assay [2], the PA-7 (MIC) worked out at 16 µg/mL.

As for `CC(CCn1ccc(-c2ccc(OCCCn3cncn3)c(Cl)c2Cl)cc1=O)(C(=O)NO)S(C)(=O)=O` (centres unmarked) [Example 292, 4-[4-{2,3-dichloro-4-[3-(1H-1,2,4-triazol-1-yl)propoxy]phenyl}-2-oxopyridin-1(2H)-yl]-N-hydroxy-2-methyl-2-(methylsulfonyl)butanamide], the EC-1 (MIC) in assay [1] was found to be 8 µg/mL. In assay [2], this compound gave a PA-7 (MIC) of 16 µg/mL.

For `Cc1cc(-c2ccn(CCC(C)(C(=O)NO)S(C)(=O)=O)c(=O)c2)ccc1OCCCn1cncn1` (centres unmarked) [Example 293, N-hydroxy-2-methyl-2-(methylsulfonyl)-4-[4-{3-methyl-4-[3-(1H-1,2,4-triazol-1-yl)propoxy]phenyl}-2-oxopyridin-1(2H)-yl]butanamide], the EC-1 (MIC) in assay [1] is 4 µg/mL. This compound also showed a PA-7 (MIC) in assay [2] of 16 µg/mL.

In assay [1], `CCCC(CCn1ccc(-c2ccccc2)cc1=O)(C(=O)NO)S(C)(=O)=O` (centres unmarked) [Example 294] came in with an EC-1 (MIC) of more than 64 µg/mL. Moreover, in assay [2], the PA-7 (MIC) is more than 64 µg/mL.

For `CC(CCn1ccc(-c2ccc(-c3cccnc3)cc2F)cc1=O)(C(=O)NO)S(C)(=O)=O` (centres unmarked) [Example 295, 4-[4-(2-fluoro-4-pyridin-3-ylphenyl)-2-oxopyridin-1(2H)-yl]-N-hydroxy-2-methyl-2-(methylsulfonyl)butanamide], in assay [1], the EC-1 (MIC) came out at 1 µg/mL. In assay [2], this compound yielded a PA-7 (MIC) of 8 µg/mL.

In assay [1], `CC(CCn1ccc(-c2c[nH]c3ccccc23)cc1=O)(C(=O)NO)S(C)(=O)=O` (centres unmarked) [Example 296, N-hydroxy-4-[4-(1H-indol-3-yl)-2-oxopyridin-1(2H)-yl]-2-methyl-2-(methylsulfonyl)butanamide] yielded an EC-1 (MIC) of 64 µg/mL. In assay [2], this compound showed a PA-7 (MIC) of 64 µg/mL.

As to `CC(CCn1ccc(-c2ccc(-c3cccnc3)c(F)c2)cc1=O)(C(=O)NO)S(C)(=O)=O` (centres unmarked) [Example 297, 4-[4-(3-fluoro-4-pyridin-3-ylphenyl)-2-oxopyridin-1(2H)-yl]-N-hydroxy-2-methyl-2-(methylsulfonyl)butanamide], in assay [1], the EC-1 (MIC) is 1 µg/mL. Moreover, in assay [2], the PA-7 (MIC) is 2 µg/mL.

In turn, `CC(CCn1ccc(-c2ccc(-c3ccncc3)c(F)c2)cc1=O)(C(=O)NO)S(C)(=O)=O` (centres unmarked) [Example 298, 4-[4-(3-fluoro-4-pyridin-4-ylphenyl)-2-oxopyridin-1(2H)-yl]-N-hydroxy-2-methyl-2-(methylsulfonyl)butanamide] came in with an EC-1 (MIC) in assay [1] of 0.5 µg/mL. Moreover, the PA-7 (MIC) in assay [2] is 4 µg/mL.

Turning to `CC(CCn1ccc(-c2ccc3ccc(O)cc3c2)cc1=O)(C(=O)NO)S(C)(=O)=O` (centres unmarked) [Example 299, N-hydroxy-4-[4-(7-hydroxy-2-naphthyl)-2-oxopyridin-1(2H)-yl]-2-methyl-2-(methylsulfonyl)butanamide], the EC-1 (MIC) in assay [1] came to 1 µg/mL. In addition, in assay [2], the PA-7 (MIC) stood at 4 µg/mL.

As to `Cc1ccc2cc(-c3ccn(CCC(C)(C(=O)NO)S(C)(=O)=O)c(=O)c3)ccc2n1` (centres unmarked) [Example 300, N-hydroxy-2-methyl-4-[4-(2-methylquinolin-6-yl)-2-oxopyridin-1(2H)-yl]-2-(methylsulfonyl)butanamide], the EC-1 (MIC) in assay [1] is 4 µg/mL. The PA-7 (MIC) in assay [2] is 8 µg/mL.

With `Cc1cnc2ccc(-c3ccn(CCC(C)(C(=O)NO)S(C)(=O)=O)c(=O)c3)cc2c1` (centres unmarked) [Example 301, N-hydroxy-2-methyl-4-[4-(3-methylquinolin-6-yl)-2-oxopyridin-1(2H)-yl]-2-(methylsulfonyl)butanamide], the EC-1 (MIC) in assay [1] was found to be 4 µg/mL. Moreover, the PA-7 (MIC) in assay [2] is 16 µg/mL.

Regarding `Cc1ccnc2ccc(-c3ccn(CCC(C)(C(=O)NO)S(C)(=O)=O)c(=O)c3)cc12` (centres unmarked) [Example 302, N-hydroxy-2-methyl-4-[4-(4-methylquinolin-6-yl)-2-oxopyridin-1(2H)-yl]-2-(methylsulfonyl)butanamide], the EC-1 (MIC) in assay [1] is 64 µg/mL. This compound returned a PA-7 (MIC) in assay [2] of 16 µg/mL.

Consider `C[C@@](CCn1ccc(-c2ccc(OCCN3CCC(O)CC3)c(Cl)c2Cl)cc1=O)(C(=O)NO)S(C)(=O)=O` [Example 303, (2R)-4-[4-{2,3-dichloro-4-[2-(4-hydroxypiperidin-1-yl)ethoxy]phenyl}-2-oxopyridin-1(2H)-yl]-N-hydroxy-2-methyl-2-(methylsulfonyl)butanamide], for which the EC-1 (MIC) in assay [1] worked out at 32 µg/mL. In addition, in assay [2], the PA-7 (MIC) turned out to be 16 µg/mL.

`C[C@@](CCn1ccc(-c2ccc(OCCN3CCOCC3)c(Cl)c2Cl)cc1=O)(C(=O)NO)S(C)(=O)=O` [Example 304, (2R)-4-{4-[2,3-dichloro-4-(2-morpholin-4-ylethoxy)phenyl]-2-oxopyridin-1(2H)-yl}-N-hydroxy-2-methyl-2-(methylsulfonyl)butanamide]: in assay [1], the EC-1 (MIC) came out at 4 µg/mL. Further, the PA-7 (MIC) in assay [2] came out at 16 µg/mL.

On to `Cc1ccc2ccc(-c3ccn(CCC(C)(C(=O)NO)S(C)(=O)=O)c(=O)c3)cc2n1` (centres unmarked) [Example 305, N-hydroxy-2-methyl-4-[4-(2-methylquinolin-7-yl)-2-oxopyridin-1(2H)-yl]-2-(methylsulfonyl)butanamide], for which the EC-1 (MIC) in assay [1] came out at 16 µg/mL. In assay [2], this compound came in with a PA-7 (MIC) of more than 64 µg/mL.

In turn, `CC(CCn1ccc(-c2cc3ccncc3cc2F)cc1=O)(C(=O)NO)S(C)(=O)=O` (centres unmarked) [Example 306, 4-[4-(7-fluoroisoquinolin-6-yl)-2-oxopyridin-1(2H)-yl]-N-hydroxy-2-methyl-2-(methylsulfonyl)butanamide] displayed an EC-1 (MIC) in assay [1] of 8 µg/mL. Also, the PA-7 (MIC) in assay [2] was found to be 4 µg/mL.

Turning to `CC(CCn1ccc(-c2cccc(OCCCO)c2F)cc1=O)(C(=O)NO)S(C)(=O)=O` (centres unmarked) [Example 307, 4-{4-[2-fluoro-3-(3-hydroxypropoxy)phenyl]-2-oxopyridin-1(2H)-yl}-N-hydroxy-2-methyl-2-(methylsulfonyl)butanamide], in assay [1], the EC-1 (MIC) stood at 16 µg/mL. Further, in assay [2], the PA-7 (MIC) is 16 µg/mL.

For `Cc1cnc2cc(-c3ccn(CCC(C)(C(=O)NO)S(C)(=O)=O)c(=O)c3)ccc2c1` (centres unmarked) [Example 308, N-hydroxy-2-methyl-4-[4-(3-methylquinolin-7-yl)-2-oxopyridin-1(2H)-yl]-2-(methylsulfonyl)butanamide], the EC-1 (MIC) in assay [1] came to 2 µg/mL. Also, the PA-7 (MIC) in assay [2] came out at 4 µg/mL.

`CC(CCn1ccc(-c2ccc3cc(CO)ccc3c2)cc1=O)(C(=O)NO)S(C)(=O)=O` (centres unmarked) [Example 309, N-hydroxy-4-{4-[6-(hydroxymethyl)-2-naphthyl]-2-oxopyridin-1(2H)-yl}-2-methyl-2-(methylsulfonyl)butanamide]: in assay [1], the EC-1 (MIC) is 1 µg/mL. This compound also gave a PA-7 (MIC) in assay [2] of 4 µg/mL.

Take `COc1ccc(-c2ccc(-c3ccn(CC[C@](C)(C(=O)NO)S(C)(=O)=O)c(=O)c3)cc2)cn1` [Example 310, (2R)-N-hydroxy-4-{4-[4-(6-methoxypyridin-3-yl)phenyl]-2-oxopyridin-1(2H)-yl}-2-methyl-2-(methylsulfonyl)butanamide]: in assay [1], the EC-1 (MIC) turned out to be 0.125 µg/mL. Also, in assay [2], the PA-7 (MIC) was 0.5 µg/mL.
